According to ChEMBL document CHEMBL1201862, “PubChem BioAssay data set” (2004):
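Step 1: Grow cells in 96-well plates. Step 2: Expose to compound for 48 hours at 5 concentrations. Step 3: Interpolate endpoints linearly; if unreached, use highest concentration. At the GI50, growth is halved.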 Active and inactive are the calls of the source. No stated cut-off is given here; in the data, active = GI50 up to about 1.1 µM and inactive = higher.

Experiments:
Test in all cases: growth of human tumour cells (NCI), 48 h
SF-295 = test system: SF-295
OVCAR-8 = test system: OVCAR-8
M14 = test system: M14
SF-539 = test system: SF-539
SK-OV-3 = test system: SK-OV-3
SNB-19 = test system: SNB-19
OVCAR-5 = test system: OVCAR-5
SW-620 = test system: SW-620
786-0 = test system: 786-0
HCT-15 = test system: HCT-15
KM-20L2 = test system: KM-20L2
NCI-H226 = test system: NCI-H226
M19-MEL = test system: M19-MEL
HCT-116 = test system: HCT-116
HCC 2998 = test system: HCC 2998
DMS-273 = test system: DMS-273
HT-29 = test system: HT-29
UACC-257 = test system: UACC-257
LXFL 529 = test system: LXFL 529
RPMI-8226 = test system: RPMI-8226
HOP-92 = test system: HOP-92
SR = test system: SR
SK-MEL-28 = test system: SK-MEL-28
LOX IMVI = test system: LOX IMVI
SF-268 = test system: SF-268
UO-31 = test system: UO-31
ACHN = test system: ACHN
NCI-H522 = test system: NCI-H522
SNB-75 = test system: SNB-75
SK-MEL-5 = test system: SK-MEL-5
EKVX = test system: EKVX
COLO 205 = test system: COLO 205
SK-MEL-2 = test system: SK-MEL-2
HOP-62 = test system: HOP-62
HOP-18 = test system: HOP-18
CCRF-CEM = test system: CCRF-CEM
NCI-H23 = test system: NCI-H23
K562 = test system: K562
SNB-78 = test system: SNB-78
SN12C = test system: SN12C
DMS-114 = test system: DMS-114
IGROV-1 = test system: IGROV-1
DLD-1 = test system: DLD-1
U-251 = test system: U-251
OVCAR-3 = test system: OVCAR-3
A549 = test system: A549
MOLT-4 = test system: MOLT-4
HL-60 = test system: HL-60
A498 = test system: A498
Malme-3M = test system: Malme-3M
TK-10 = test system: TK-10
OVCAR-4 = test system: OVCAR-4
UACC-62 = test system: UACC-62
CAKI-1 = test system: CAKI-1
KM12 = test system: KM12
RXF 393 = test system: RXF 393
XF498 = test system: XF498
NCI-H460 = test system: NCI-H460

Cc1ccc(C)c(N2C(=O)C(=O)C(c3nc4ccccc4o3)/C(=N\NC(=O)c3ccccc3O)C2=O)c1 (stereo not given)
GI50 (SF-295): 56.2 µM (inactive) | GI50 (OVCAR-8): 19.8 µM (inactive) | GI50 (M14): 32.3 µM (inactive) | GI50 (SF-539): 19.1 µM (inactive) | GI50 (SK-OV-3): 87.1 µM (inactive) | GI50 (SNB-19): 12.3 µM (inactive) | GI50 (OVCAR-5): 58.3 µM (inactive) | GI50 (SW-620): 29.6 µM (inactive) | GI50 (786-0): 27.4 µM (inactive) | GI50 (HCT-15): 18 µM | GI50 (KM-20L2): 41.1 µM (inactive) | GI50 (NCI-H226): 12.2 µM (inactive) | GI50 (M19-MEL): 64.7 µM (inactive) | GI50 (HCT-116): 17.5 µM (inactive) | GI50 (HCC 2998): 67.3 µM (inactive) | GI50 (DMS-273): 6.14 µM (inactive) | GI50 (HT-29): 32.1 µM (inactive) | GI50 (UACC-257): 23 µM (inactive) | GI50 (LXFL 529): 31.8 µM (inactive) | GI50 (RPMI-8226): 37.6 µM (inactive) | GI50 (HOP-92): 41.7 µM (inactive) | GI50 (SR): 30.1 µM (inactive) | GI50 (SK-MEL-28): > 100 µM (inactive) | GI50 (LOX IMVI): 32.4 µM (inactive) | GI50 (SF-268): 12.2 µM (inactive) | GI50 (UO-31): 16.3 µM (inactive) | GI50 (ACHN): 12 µM (inactive) | GI50 (NCI-H522): 17.5 µM (inactive) | GI50 (SNB-75): 5.7 µM (inactive) | GI50 (SK-MEL-5): 38.5 µM (inactive) | GI50 (EKVX): 22.8 µM (inactive) | GI50 (COLO 205): 24.2 µM (inactive) | GI50 (SK-MEL-2): 29.6 µM (inactive) | GI50 (HOP-62): 24.9 µM (inactive) | GI50 (HOP-18): 20.9 µM (inactive) | GI50 (CCRF-CEM): 4.09 µM (inactive) | GI50 (NCI-H23): 10.7 µM (inactive) | GI50 (K562): 16.4 µM (inactive) | GI50 (SNB-78): 6.08 µM (inactive) | GI50 (SN12C): 26.2 µM (inactive) | GI50 (DMS-114): 20.1 µM (inactive) | GI50 (IGROV-1): 6.52 µM (inactive) | GI50 (DLD-1): 28.9 µM (inactive) | GI50 (U-251): 24.4 µM (inactive) | GI50 (OVCAR-3): 16.6 µM (inactive) | GI50 (A549): 13.6 µM (inactive) | GI50 (MOLT-4): 12.8 µM (inactive) | GI50 (HL-60): < 0.01 µM (active) | GI50 (A498): 13 µM (inactive) | GI50 (Malme-3M): 66.1 µM (inactive) | GI50 (TK-10): 44 µM (inactive) | GI50 (OVCAR-4): 11.7 µM (inactive) | GI50 (UACC-62): 5.68 µM (inactive) | GI50 (CAKI-1): 3.75 µM (inactive)

C1=Nc2ccccc2Cn2nncc21
GI50 (OVCAR-8): > 100 µM (inactive) | GI50 (M14): 67.3 µM (inactive) | GI50 (SF-539): 28.6 µM (inactive) | GI50 (SK-OV-3): > 100 µM (inactive) | GI50 (SNB-19): > 100 µM (inactive) | GI50 (KM12): 47.1 µM (inactive) | GI50 (OVCAR-5): > 100 µM (inactive) | GI50 (SW-620): 34 µM (inactive) | GI50 (HCT-15): 41.8 µM | GI50 (KM-20L2): > 100 µM (inactive) | GI50 (NCI-H226): > 100 µM (inactive) | GI50 (M19-MEL): > 100 µM (inactive) | GI50 (HCT-116): 35.7 µM (inactive) | GI50 (HCC 2998): 99.5 µM (inactive) | GI50 (RXF 393): > 100 µM (inactive) | GI50 (DMS-273): > 10 µM (inactive) | GI50 (HT-29): 45.6 µM (inactive) | GI50 (LXFL 529): 98.2 µM (inactive) | GI50 (RPMI-8226): > 100 µM (inactive) | GI50 (HOP-92): 54.7 µM (inactive) | GI50 (SR): 60.3 µM (inactive) | GI50 (SK-MEL-28): 80.7 µM (inactive) | GI50 (LOX IMVI): 46.9 µM (inactive) | GI50 (SF-268): > 100 µM (inactive) | GI50 (XF498): > 100 µM (inactive) | GI50 (NCI-H460): > 100 µM (inactive) | GI50 (UO-31): 89.1 µM (inactive) | GI50 (ACHN): > 100 µM (inactive) | GI50 (NCI-H522): 32.7 µM (inactive) | GI50 (SK-MEL-5): > 10 µM (inactive) | GI50 (EKVX): 98.2 µM (inactive) | GI50 (COLO 205): > 100 µM (inactive) | GI50 (SK-MEL-2): 78.2 µM (inactive) | GI50 (HOP-62): > 100 µM (inactive) | GI50 (HOP-18): 74.8 µM (inactive) | GI50 (CCRF-CEM): 49.9 µM (inactive) | GI50 (NCI-H23): > 100 µM (inactive) | GI50 (K562): 35.2 µM (inactive) | GI50 (SN12C): > 100 µM (inactive) | GI50 (IGROV-1): 67.5 µM (inactive) | GI50 (DLD-1): 57.3 µM (inactive) | GI50 (U-251): 26 µM (inactive) | GI50 (OVCAR-3): > 100 µM (inactive) | GI50 (A549): > 100 µM (inactive) | GI50 (MOLT-4): > 100 µM (inactive) | GI50 (HL-60): 25.4 µM (inactive) | GI50 (Malme-3M): 63 µM (inactive) | GI50 (TK-10): > 100 µM (inactive) | GI50 (OVCAR-4): > 100 µM (inactive) | GI50 (UACC-62): 23 µM (inactive) | GI50 (CAKI-1): 29.9 µM (inactive)
